Test system: 276233-004-R-J1-PDC complex spheroid viability
Assay: Anticancer human tumor 276233-004-R-J1-PDC patient-derived colon adenocarcinoma cell line growth inhibition [GQUAD]
Conditions: for IC50: curve of first compound; for viability, T/C: stronger effect = lower value
In short: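 Viability of tumor cells grown as complex spheroids with endothelial and stromal cells, exposed to drug combinations. Top concentration at or near clinical Cmax (else 10 microM), diluted in half-log increments.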

[1] = second compound 0.0316 µM, first compound 0.0316 µM
[2] = second compound 0.0316 µM, first compound 0.316 µM
[3] = second compound 0.1 µM, first compound 0.0316 µM
[4] = second compound 0.1 µM, first compound 0.316 µM
[5] = second compound 0.316 µM, first compound 0.0316 µM
[6] = second compound 0.316 µM, first compound 0.316 µM
[7] = second compound 1 µM, first compound 0.0316 µM
[8] = second compound 1 µM, first compound 0.316 µM
[9] = second compound 3.16 µM, first compound 0.0316 µM
[10] = second compound 3.16 µM, first compound 0.316 µM
[11] = second compound 10 µM, first compound 0.0316 µM
[12] = second compound 10 µM, first compound 0.316 µM
[13] = second compound 0.0316 µM, first compound 0.000999 µM
[14] = second compound 0.0316 µM, first compound 0.00316 µM
[15] = second compound 0.0316 µM, first compound 0.00999 µM
[16] = second compound 0.0316 µM, first compound 0.0999 µM
[17] = second compound 0.1 µM, first compound 0.000999 µM
[18] = second compound 0.1 µM, first compound 0.00316 µM
[19] = second compound 0.1 µM, first compound 0.00999 µM
[20] = second compound 0.1 µM, first compound 0.0999 µM
[21] = second compound 0.316 µM, first compound 0.000999 µM
[22] = second compound 0.316 µM, first compound 0.00316 µM
[23] = second compound 0.316 µM, first compound 0.00999 µM
[24] = second compound 0.316 µM, first compound 0.0999 µM
[25] = second compound 1 µM, first compound 0.000999 µM
[26] = second compound 1 µM, first compound 0.00316 µM
[27] = second compound 1 µM, first compound 0.00999 µM
[28] = second compound 1 µM, first compound 0.0999 µM
[29] = second compound 3.16 µM, first compound 0.000999 µM
[30] = second compound 3.16 µM, first compound 0.00316 µM
[31] = second compound 3.16 µM, first compound 0.00999 µM
[32] = second compound 3.16 µM, first compound 0.0999 µM
[33] = second compound 10 µM, first compound 0.000999 µM
[34] = second compound 10 µM, first compound 0.00316 µM
[35] = second compound 10 µM, first compound 0.00999 µM
[36] = second compound 10 µM, first compound 0.0999 µM
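Also: spheroids exposed to drugs for seven days.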
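For viability, T/C in this document: 100% = DMSO vehicle control viability.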

C#Cc1c(F)ccc2cc(O)cc(-c3ncc4c(N5CC6CCC(C5)N6)nc(OCC56CCCN5CC(F)C6)nc4c3F)c12 (stereo unspecified) + CN(C)c1ccc(Nc2c3ccc(NC(=O)CCN4CCCC4)cc3nc3cc(NC(=O)CCN4CCCC4)ccc23)cc1
IC50 (second compound 0.0316 µM): 3310 nM | IC50 (second compound 0.1 µM): 3140 nM | IC50 (second compound 0.316 µM): 1300 nM | IC50 (second compound 1 µM): 368 nM | IC50 (second compound 3.16 µM): < 31.6 nM | IC50 (second compound 10 µM): < 31.6 nM | viability, T/C [1]: 90.1% | viability, T/C (second compound 0.0316 µM, first compound 0.1 µM): 79% | viability, T/C [2]: 101% | viability, T/C (second compound 0.0316 µM, first compound 1 µM): 75.6% | viability, T/C (second compound 0.0316 µM, first compound 3.16 µM): 52% | viability, T/C (second compound 0.0316 µM, first compound 10 µM): 36.9% | viability, T/C [3]: 78.7% | viability, T/C (second compound 0.1 µM, first compound 0.1 µM): 74.2% | viability, T/C [4]: 56.4% | viability, T/C (second compound 0.1 µM, first compound 1 µM): 56.8% | viability, T/C (second compound 0.1 µM, first compound 3.16 µM): 54.8% | viability, T/C (second compound 0.1 µM, first compound 10 µM): 42.2% | viability, T/C [5]: 54.7% | viability, T/C (second compound 0.316 µM, first compound 0.1 µM): 47.2% | viability, T/C [6]: 57.1% | viability, T/C (second compound 0.316 µM, first compound 1 µM): 54.2% | viability, T/C (second compound 0.316 µM, first compound 3.16 µM): 39% | viability, T/C (second compound 0.316 µM, first compound 10 µM): 30.1% | viability, T/C [7]: 65% | viability, T/C (second compound 1 µM, first compound 0.1 µM): 54.8% | viability, T/C [8]: 54.9% | viability, T/C (second compound 1 µM, first compound 1 µM): 40.4% | viability, T/C (second compound 1 µM, first compound 3.16 µM): 49.1% | viability, T/C (second compound 1 µM, first compound 10 µM): 42% | viability, T/C [9]: 51.2% | viability, T/C (second compound 3.16 µM, first compound 0.1 µM): 40% | viability, T/C [10]: 36.5% | viability, T/C (second compound 3.16 µM, first compound 1 µM): 39.2% | viability, T/C (second compound 3.16 µM, first compound 3.16 µM): 39.1% | viability, T/C (second compound 3.16 µM, first compound 10 µM): 35.1% | viability, T/C [11]: 43.6% | viability, T/C (second compound 10 µM, first compound 0.1 µM): 43.7% | viability, T/C [12]: 40.2% | viability, T/C (second compound 10 µM, first compound 1 µM): 40.7% | viability, T/C (second compound 10 µM, first compound 3.16 µM): 36.6% | viability, T/C (second compound 10 µM, first compound 10 µM): 27.4%

CC[C@@]1(O)C(=O)OCc2c1cc1n(c2=O)Cc2cc3c(CN(C)C)c(O)ccc3nc2-1 + CN(C)c1ccc(Nc2c3ccc(NC(=O)CCN4CCCC4)cc3nc3cc(NC(=O)CCN4CCCC4)ccc23)cc1
IC50 (second compound 0.0316 µM): > 316 nM | IC50 (second compound 0.1 µM): > 316 nM | IC50 (second compound 0.316 µM): > 316 nM | IC50 (second compound 1 µM): > 316 nM | IC50 (second compound 3.16 µM): 93 nM | IC50 (second compound 10 µM): 88.1 nM | viability, T/C [13]: 89.7% | viability, T/C [14]: 110% | viability, T/C [15]: 91.8% | viability, T/C [1]: 103% | viability, T/C [16]: 95.5% | viability, T/C [2]: 91.2% | viability, T/C [17]: 84.2% | viability, T/C [18]: 87.7% | viability, T/C [19]: 84.9% | viability, T/C [3]: 112% | viability, T/C [20]: 86.1% | viability, T/C [4]: 85.4% | viability, T/C [21]: 68.2% | viability, T/C [22]: 84.2% | viability, T/C [23]: 66.5% | viability, T/C [5]: 58.5% | viability, T/C [24]: 64.8% | viability, T/C [6]: 82% | viability, T/C [25]: 62.6% | viability, T/C [26]: 56.4% | viability, T/C [27]: 66.7% | viability, T/C [7]: 51.6% | viability, T/C [28]: 77.5% | viability, T/C [8]: 57.5% | viability, T/C [29]: 64.1% | viability, T/C [30]: 61.3% | viability, T/C [31]: 56.2% | viability, T/C [9]: 50% | viability, T/C [32]: 52.5% | viability, T/C [10]: 46.8% | viability, T/C [33]: 58% | viability, T/C [34]: 58.5% | viability, T/C [35]: 46.7% | viability, T/C [11]: 66.1% | viability, T/C [36]: 43.8% | viability, T/C [12]: 39.8%

CCc1c2c(nc3ccc(O)cc13)-c1cc3c(c(=O)n1C2)COC(=O)[C@]3(O)CC + CN(C)c1ccc(Nc2c3ccc(NC(=O)CCN4CCCC4)cc3nc3cc(NC(=O)CCN4CCCC4)ccc23)cc1
IC50 (second compound 0.0316 µM): > 316 nM | IC50 (second compound 0.1 µM): > 316 nM | IC50 (second compound 0.316 µM): > 316 nM | IC50 (second compound 1 µM): > 316 nM | IC50 (second compound 3.16 µM): < 0.999 nM | IC50 (second compound 10 µM): < 0.999 nM | viability, T/C [13]: 102% | viability, T/C [14]: 104% | viability, T/C [15]: 104% | viability, T/C [1]: 105% | viability, T/C [16]: 108% | viability, T/C [2]: 117% | viability, T/C [17]: 94.3% | viability, T/C [18]: 84.9% | viability, T/C [19]: 101% | viability, T/C [3]: 107% | viability, T/C [20]: 99.7% | viability, T/C [4]: 117% | viability, T/C [21]: 60.1% | viability, T/C [22]: 71.1% | viability, T/C [23]: 75.7% | viability, T/C [5]: 76.4% | viability, T/C [24]: 79.5% | viability, T/C [6]: 91.8% | viability, T/C [25]: 60.3% | viability, T/C [26]: 50.9% | viability, T/C [27]: 67.2% | viability, T/C [7]: 71.6% | viability, T/C [28]: 70% | viability, T/C [8]: 89.7% | viability, T/C [29]: 50.8% | viability, T/C [30]: 46.4% | viability, T/C [31]: 72.6% | viability, T/C [9]: 70.8% | viability, T/C [32]: 75.3% | viability, T/C [10]: 70.4% | viability, T/C [33]: 44% | viability, T/C [34]: 55.1% | viability, T/C [35]: 59.1% | viability, T/C [11]: 65.9% | viability, T/C [36]: 78.5% | viability, T/C [12]: 76.4%

— PubChem BioAssay AID2060496 (Molecular Pharmacology Branch, DTP, NCI, 2025)
